Experimental data published in patent US10874106B2, “Method of regulating plant growth” (ROTAM AGROCHEM INTERNATIONAL COMPANY LIMITED, priority 2012, dated 2020).

Key:
Type in all cases: in vivo
[1] = system: sugarcane plants; experiment: Growth of sugarcane plants treated with clomazone versus untreated plants
Method: (§1) Sugarcane plants are treated by the application of a commercially available concentrate formulation of clomazone (Centium 360 CS®; a suspension concentrate of microencapsulated clomazone at a concentration of 360 g/l). The concentrate formulation is dispersed in water and diluted, in a manner conventional in the art, to give an aqueous spray composition. The spray composition is applied to the sugarcane plants in an amount to apply clomazone at a rate of 120 g/hectare.
The growth of the sugarcane plants is monitored and compared with the growth of sugarcane plants grown under the same conditions, but without treatment with clomazone.

[2] = system: rice plants; experiment: Growth of young rice plants treated with clomazone versus untreated plants
Method: as §1
Young rice plants are treated in an analogous manner to that described in Example 1.
The growth of the rice plants is monitored and compared with the growth of rice plants of the same age and grown under the same conditions, but without treatment with clomazone.

[3] = system: soybean plants; experiment: Growth of young soybean plants treated with clomazone versus untreated plants
Method: as §1
Young soybean plants are treated in an analogous manner to that described in Example 1.
The growth of the soybean plants is monitored and compared with the growth of soybean plants of the same age and grown under the same conditions, but without treatment with clomazone.

[4] = system: oilseed rape plants; experiment: Growth of young oilseed rape plants treated with clomazone versus untreated plants
Method: as §1
Young oilseed rape plants are treated in an analogous manner to that described in Example 1.
The growth of the oilseed rape plants is monitored and compared with the growth of oilseed rape plants of the same age and grown under the same conditions, but without treatment with clomazone.

[5] = system: potato plants; experiment: Growth of young potato plants treated with clomazone versus untreated plants
Method: as §1
Young potato plants are treated in an analogous manner to that described in Example 1.
The growth of the potato plants is monitored and compared with the growth of potato plants of the same age and grown under the same conditions, but without treatment with clomazone.

[6] = clomazone 120 g/hectare spray, versus untreated plants
[7] = treated analogously to Example 1
[8] = treated analogously to Example 1, versus untreated plants

Compound: CC1(C)CON(Cc2ccccc2Cl)C1=O [clomazone, 2-(2-chlorophenyl)methyl-4,4-dimethyl-3-isoxazolidinone]
- growth of the treated plants in comparison to the untreated plants ([1]; Centium 360 CS diluted in water, sprayed, clomazone 120 g/hectare): significantly improved
- average height [1, 6]: greater
- average leaf blade area [1, 6]: larger
- shoot growth [1, 6]: increased
- growth of the treated plants in comparison to the untreated plants [2, 7]: significantly improved
- average height [2, 8]: greater
- average leaf blade area [2, 8]: larger
- shoot growth [2, 8]: increased
- growth of the treated plants in comparison to the untreated plants [3, 7]: significantly improved
- average height [3, 8]: greater
- average leaf blade area [3, 8]: larger
- shoot growth [3, 8]: increased
- growth of the treated plants in comparison to the untreated plants [4, 7]: significantly improved
- average height [4, 8]: greater
- average leaf blade area [4, 8]: larger
- shoot growth [4, 8]: increased
- growth of the treated plants in comparison to the untreated plants [5, 7]: significantly improved
- average height [5, 8]: greater
- average leaf blade area [5, 8]: larger
- shoot growth [5, 8]: increased
